Common to all, as to format: biochemical
Assay [1] concerns the target T1, KLKB1 (Homo sapiens (Human), UniProt P03952). The assay can be described thus: Inhibition of KLKB1 in kaolin activated human PPP. The protocol: Evaluation of the Inhibition of KLKB1 in Kaolin Activated Human PPP
Platelet poor plasma (PPP) obtained from human wholeblood, anticoagulated with Na-Citrat, was incubated with various concentrations of the test compound together with either 25, 75, 250, or 750 μg/mL kaolin in assay buffer for 20 min at 37° C. such that for each kaolin dose used a concentration response was obtained for the test compound.
(§1) The number of the compound corresponds to the number of the Example in the experimental section.

In assay [2] the target is T1, KLKB1. Kind of assay: Inhibition of KLKB1 (Ki), kinetic assay. As to conditions: 24° C., 0.25 mM H-Pro-Phe-Arg-AMC; IC50 corrected for KM of substrate. The protocol: (§2) The ability of compounds of formula (I) to inhibit plasma kallikrein (KLKB1), Factor XIIa (FXIIa), Factor XIa (FXIa), Factor Xa (FXa), Factor IIa (alpha-thrombin; FIIa), plasmin, trypsin, tissue kallikrein 1 (KLK1), Factor Vila (FVIIa), or FVIIa complexed with Tissue Factor, phospholipids and CaCl2 (FVIIa/TF/PL/CaCl2) was determined using the following biochemical assays in assay buffer (100 mM Tris, 150 mM NaCL, adjusted to a pH of 7.8 with HCl, and containing 0.1% (w/v) BSA and 0.05% (v/v) Tween20) in the presence of 1% (v/v) DMSO:
Evaluation of the Inhibition of KLKB1 (Ki)
Measurements were performed in a kinetic interval every 2nd minute for 16 min using a Spectramax M5 (Molecular Devices) with the following settings of the wavelength excitation of 350 nm and wavelength emission of 450 nm.
as §1
Calculation of pIC50 and Pki Values
The pIC50 values were then fitted using a four-parametric fitting procedure using GraphPad Prism (version 6; GraphPad Software, Inc.).
Where the IC50 is in molar and the KM value in mM.

For assay [3], the target named is T1, KLKB1. Kind of assay: Inhibition of KLKB1 using an endpoint assay (fluorogenic substrate H-Pro-Phe-Arg-AMC). The protocol: as §2
Evaluation of the Inhibition of KLKB1 Using an Endpoint Assay
Human KLKB1 (0.01 U/mL; Enzyme Research Laboratories) or rat KLKB1 (0.625 nM; produced in-house) was incubated for 1 h at room temperature with 0.10 μM fluorogenic substrate H-Pro-Phe-Arg-AMC (11295 from Bachem) and various concentrations of the test compound in assay buffer. Subsequently, PPACK 11 (Calbiochem) was added as a stop solution to achieve a final concentration of 1 μM and fluorescence was measured using an Envision Reader (PerkinElmer) with the wavelength excitation setting of 355 nm and the wavelength emission setting of 460 nm.
as §1

In assay [4] the target is T1, KLKB1. The assay can be described thus: Inhibition of human KLKB1 in dextran sulfate activated human PPP. The protocol: Evaluation of the Inhibition of Human KLKB1 in Dextran Sulfate Activated Human PPP
Platelet poor plasma (PPP) obtained from human wholeblood, anticoagulated with EDTA, was activated with 12.5 μg/mL dextransulfate for 7 min on ice. The activated PPP was incubated with various concentrations of the test compound in assay buffer. Afterwards the mixture was incubated at 24° C. with 0.25 mM fluorogenic substrate H-Pro-Phe-Arg-AMC (11295 from Bachem) and measurements were performed in a kinetic interval every 2nd minute for 16 min using a Spectramax M5 (Molecular Devices) with the following settings of the wavelength excitation of 350 nm and wavelength emission of 450 nm.
as §1

The mark [5] stands for this setting: human platelet poor plasma (Na-Citrat), 25, 75, 250 or 750 μg/mL kaolin, global fit, read-out: IC50.
Where [6] appears, read: endpoint assay, 1 h at room temperature, 0.10 μM H-Pro-Phe-Arg-AMC, read-out: IC50.
[7] abbreviates: human platelet poor plasma (EDTA) activated with 12.5 μg/mL dextransulfate, 24° C., read-out: IC50.

Where two headings read alike, the source gives them in different places.

T1 sequence (P03952 391-638 limits assumed): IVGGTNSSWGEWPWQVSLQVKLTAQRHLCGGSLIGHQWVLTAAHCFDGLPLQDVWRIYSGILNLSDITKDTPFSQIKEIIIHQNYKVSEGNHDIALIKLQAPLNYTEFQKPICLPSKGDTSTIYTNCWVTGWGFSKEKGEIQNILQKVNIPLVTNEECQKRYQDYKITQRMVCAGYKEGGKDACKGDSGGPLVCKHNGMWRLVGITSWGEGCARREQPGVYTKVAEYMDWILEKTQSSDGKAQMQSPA
T1 sequence (P03952 20-390 partner limits assumed): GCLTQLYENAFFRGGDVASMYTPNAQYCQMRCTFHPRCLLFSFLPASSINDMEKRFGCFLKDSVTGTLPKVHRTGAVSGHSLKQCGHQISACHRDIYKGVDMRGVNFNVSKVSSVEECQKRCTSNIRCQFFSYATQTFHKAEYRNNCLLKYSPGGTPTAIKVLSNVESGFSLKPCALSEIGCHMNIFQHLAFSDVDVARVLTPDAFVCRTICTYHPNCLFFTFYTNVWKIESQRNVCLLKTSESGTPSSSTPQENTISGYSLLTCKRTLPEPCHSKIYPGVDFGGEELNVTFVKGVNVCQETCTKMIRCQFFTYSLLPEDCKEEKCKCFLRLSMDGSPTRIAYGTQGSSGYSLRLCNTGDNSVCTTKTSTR

With `Cc1nc(N2CC3CC3C2)ccc1Cn1cc(C(=O)N[C@@H]2CCc3c2ccnc3N)cn1` (stereo partly drawn) [Example 1, N-[(5R)-1-Amino-5H,6H,7H-cyclopenta[c]pyridin-5-yl]-1-[(6-{3-azabicyclo[3.1.0]hexan-3-yl}-2-methylpyridin-3-yl)methyl]-1H-pyrazole-4-carboxamide], the IC50 was 19 nM in assay [1], 0.5 nM in assay [3] and 54.1 nM in assay [4]. Further, in assay [1], the IC90 came out at 199 nM. In addition, in assay [2], the Ki amounted to 0.3 nM.

Compound `Cc1nc(N2CC3C(C2)C3(F)F)ccc1Cn1cc(C(=O)N[C@@H]2CCc3c2ccnc3N)cn1` (stereo partly drawn) [Example 9, N-[(5R)-1-Amino-5H,6H,7H-cyclopenta[c]pyridin-5-yl]-1-[(6-{6,6-difluoro-3-azabicyclo[3.1.0]hexan-3-yl}-2-methylpyridin-3-yl)methyl]-1H-pyrazole-4-carboxamide] came in with an IC90 in assay [1] of 89.5 nM. The IC50 in assay [1] (setting [5]) worked out at 14 nM; in assay [3] (setting [6]), 0.6 nM; in assay [4] (setting [7]), 18.1 nM. Besides, the affinity in assay [2] corresponds to a Ki of 0.4 nM.

On to `Cc1nc(N2CC3CC3C2)ncc1Cn1cc(C(=O)N[C@@H]2CCc3c2ccnc3N)cn1` (stereo partly drawn) [Example 11], for which the IC50 amounted to 23.9 nM in assay [1] (setting [5]), 1.7 nM in assay [3] (setting [6]) and 50.3 nM in assay [4] (setting [7]). Further, the 90% effect concentration (IC90) in assay [1] (human platelet poor plasma (Na-Citrat), 25, 75, 250 or 750 μg/mL kaolin, global fit, read-out: IC90) was 232 nM. The compound also came in with a Ki in assay [2] of 1.5 nM.

In turn, `Cc1nc(N2C[C@@H]3[C@H](C#N)[C@@H]3C2)ccc1Cn1cc(C(=O)N[C@@H]2CCc3c2ccnc3N)cn1` [Example 13, N-[(5R)-1-Amino-5H,6H,7H-cyclopenta[c]pyridin-5-yl]-1-({6-[(1R,5S,6R)-6-cyano-3-azabicyclo[3.1.0]hexan-3-yl]-2-methylpyridin-3-yl}methyl)-1H-pyrazole-4-carboxamide] yielded a Ki in assay [2] of 0.3 nM. The values for the IC50 in assay [3] (setting [6]) and in assay [4] (setting [7]) were 0.5 nM and 32.3 nM, respectively.

In turn, `Cc1nc(N2CCC3(CC3)C2)ccc1Cn1cc(C(=O)N[C@@H]2CCc3c2ccnc3N)cn1` [Example 14] came in with a Ki in assay [2] of 1.1 nM. The IC50 came out at 2 nM in assay [3] (setting [6]) and 80.3 nM in assay [4] (setting [7]).

These data come from patent US10501440B2, “Heteroarylcarboxamide derivatives as plasma kallikrein inhibitors” (Boehringer Ingelheim International GmbH, priority 2017, dated 2019).
